Results published in ChEMBL document CHEMBL1201862, “PubChem BioAssay data set” (2004).
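Exposure lasted 48 hours, with cells grown in 96-well plates and compounds tested at five concentrations. Here, GI50 denotes the concentration required for 50% inhibition of growth.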 Calls of active or inactive are those of the source. No stated cut-off is given here; in the data, active = GI50 up to about 1.1 µM and inactive = higher.

Columns and labels:
Assay in all cases: NCI anticancer screen, dose series, 48 h
CCRF-CEM = tested on: CCRF-CEM
HCC 2998 = tested on: HCC 2998
HOP-92 = tested on: HOP-92
K562 = tested on: K562
LOX IMVI = tested on: LOX IMVI
M14 = tested on: M14
MOLT-4 = tested on: MOLT-4
NCI-H522 = tested on: NCI-H522
RPMI-8226 = tested on: RPMI-8226
SF-268 = tested on: SF-268
SF-295 = tested on: SF-295
SK-MEL-5 = tested on: SK-MEL-5
SN12C = tested on: SN12C
U-251 = tested on: U-251
UACC-257 = tested on: UACC-257
UO-31 = tested on: UO-31
A498 = tested on: A498

Structure (SMILES)	GI50 (CCRF-CEM)	GI50 (HCC 2998)	GI50 (HOP-92)	GI50 (K562)	GI50 (LOX IMVI)	GI50 (M14)	GI50 (MOLT-4)	GI50 (NCI-H522)	GI50 (RPMI-8226)	GI50 (SF-268)	GI50 (SF-295)	GI50 (SK-MEL-5)	GI50 (SN12C)	GI50 (U-251)	GI50 (UACC-257)	GI50 (UO-31)	GI50 (A498)
N=C1SCCS1	> 100 µM (inactive)	> 100 µM (inactive)	59 µM (inactive)	> 100 µM (inactive)	> 100 µM (inactive)	> 100 µM (inactive)	> 100 µM (inactive)	> 100 µM (inactive)	> 100 µM (inactive)	> 100 µM (inactive)	> 100 µM (inactive)	> 100 µM (inactive)	> 100 µM (inactive)	> 100 µM (inactive)	> 100 µM (inactive)	> 100 µM (inactive)	–
C=C(Br)C(C)(Br)CCC(Br)C(C)(C)Br (stereo not drawn)	15 µM (inactive)	–	18.6 µM (inactive)	21.4 µM (inactive)	16.5 µM (inactive)	23.7 µM (inactive)	24.3 µM (inactive)	14.7 µM (inactive)	21.7 µM (inactive)	30.2 µM (inactive)	26.5 µM (inactive)	33.5 µM (inactive)	21.6 µM (inactive)	17.1 µM (inactive)	36.8 µM (inactive)	60.7 µM (inactive)	–
O=C1/C(=C\c2ccccc2)c2ccccc2N1/N=C\c1ccccc1	49.2 µM (inactive)	50.4 µM (inactive)	> 100 µM (inactive)	42.7 µM (inactive)	> 100 µM (inactive)	> 100 µM (inactive)	22.5 µM (inactive)	–	57.3 µM (inactive)	> 100 µM (inactive)	> 100 µM (inactive)	48.4 µM (inactive)	> 100 µM (inactive)	> 100 µM (inactive)	> 100 µM (inactive)	> 100 µM (inactive)	> 100 µM (inactive)
COc1ccccc1/C=C(\NC(=O)c1ccccc1)c1nc2ccc(Cl)cc2[nH]1	21.7 µM (inactive)	–	22.7 µM (inactive)	27.4 µM (inactive)	37.2 µM (inactive)	34.9 µM (inactive)	15.2 µM (inactive)	15.6 µM (inactive)	9.64 µM (inactive)	30.3 µM (inactive)	–	17.3 µM (inactive)	35.2 µM (inactive)	30.5 µM (inactive)	32.7 µM (inactive)	18 µM (inactive)	25.4 µM (inactive)
[O-][n+]1c2cc(CBr)c(CBr)cc2[n+]([O-])c2c(O)cccc21	0.265 µM (active)	–	1.05 µM (active)	1.22 µM (inactive)	1.35 µM (inactive)	1.75 µM (inactive)	0.344 µM (active)	0.538 µM (active)	1.53 µM (inactive)	2.84 µM (inactive)	1.84 µM (inactive)	2.1 µM (inactive)	1.73 µM (inactive)	2.9 µM (inactive)	2.38 µM (inactive)	1.93 µM (inactive)	12.5 µM (inactive)
CC1=CCN(c2ccccn2)OC1c1ccccc1 (stereo not drawn)	> 100 µM (inactive)	> 100 µM (inactive)	–	> 100 µM (inactive)	> 100 µM (inactive)	> 100 µM (inactive)	> 100 µM (inactive)	54.6 µM (inactive)	66.8 µM (inactive)	> 100 µM (inactive)	> 100 µM (inactive)	–	> 100 µM (inactive)	> 100 µM (inactive)	> 100 µM (inactive)	59.8 µM (inactive)	–
O=C(Nc1nnc(S)[nH]1)C(=O)C1C(=O)Nc2ccccc2[S+]1[O-] (stereo not drawn)	> 100 µM (inactive)	> 100 µM (inactive)	> 100 µM (inactive)	–	> 100 µM (inactive)	> 100 µM (inactive)	> 100 µM (inactive)	> 100 µM (inactive)	–	> 100 µM (inactive)	> 100 µM (inactive)	> 100 µM (inactive)	> 100 µM (inactive)	–	> 100 µM (inactive)	> 100 µM (inactive)	–
O=C1N=C2Sc3ccc4ccccc4c3N2C1=O	31.3 µM (inactive)	27 µM (inactive)	15 µM (inactive)	33 µM (inactive)	19.2 µM (inactive)	26.1 µM (inactive)	44.4 µM (inactive)	–	> 100 µM (inactive)	24.7 µM (inactive)	18.6 µM (inactive)	22.4 µM (inactive)	20.3 µM (inactive)	20.5 µM (inactive)	28.1 µM (inactive)	16 µM (inactive)	–
CC1(C)COC(C23C4C5C2C2C3C4C52I)=N1 (stereo not drawn)	> 100 µM (inactive)	> 100 µM (inactive)	> 100 µM (inactive)	> 100 µM (inactive)	–	> 100 µM (inactive)	> 100 µM (inactive)	–	> 100 µM (inactive)	> 100 µM (inactive)	> 100 µM (inactive)	> 100 µM (inactive)	> 100 µM (inactive)	> 100 µM (inactive)	> 100 µM (inactive)	> 100 µM (inactive)	> 100 µM (inactive)
CCOC(=O)C1C(=O)c2cccc(OC)c2C2COC(=O)N12 (stereo not drawn)	> 100 µM (inactive)	> 100 µM (inactive)	> 100 µM (inactive)	> 100 µM (inactive)	> 100 µM (inactive)	> 100 µM (inactive)	> 100 µM (inactive)	> 100 µM (inactive)	> 100 µM (inactive)	> 100 µM (inactive)	> 100 µM (inactive)	> 100 µM (inactive)	> 100 µM (inactive)	> 100 µM (inactive)	> 100 µM (inactive)	> 100 µM (inactive)	–
c1ccc(SC(CCCCC(Sc2ccccc2)Sc2ccccc2)Sc2ccccc2)cc1	> 100 µM (inactive)	> 100 µM (inactive)	> 100 µM (inactive)	> 100 µM (inactive)	> 100 µM (inactive)	> 100 µM (inactive)	> 100 µM (inactive)	–	> 100 µM (inactive)	> 100 µM (inactive)	> 100 µM (inactive)	> 100 µM (inactive)	> 100 µM (inactive)	> 100 µM (inactive)	> 100 µM (inactive)	> 100 µM (inactive)	> 100 µM (inactive)
CC1/C=C/[C@@]2(C)CCC(C(C)(C)O)C2C(O)C[C@](C)(O)/C=C/C1 (stereo partly drawn)	> 100 µM (inactive)	> 100 µM (inactive)	> 100 µM (inactive)	65.9 µM (inactive)	> 100 µM (inactive)	> 100 µM (inactive)	> 100 µM (inactive)	–	> 100 µM (inactive)	> 100 µM (inactive)	> 100 µM (inactive)	> 100 µM (inactive)	> 100 µM (inactive)	> 100 µM (inactive)	> 100 µM (inactive)	> 100 µM (inactive)	> 100 µM (inactive)
COc1cc2c(c(OC)c1OC)-c1ccc(SC)c(=O)cc1[C@@H](NCc1cccc([N+](=O)[O-])c1)CC2	< 0.01 µM (active)	< 0.01 µM (active)	< 0.01 µM (active)	< 0.01 µM (active)	< 0.01 µM (active)	< 0.01 µM (active)	< 0.01 µM (active)	< 0.01 µM (active)	–	< 0.01 µM (active)	< 0.01 µM (active)	< 0.01 µM (active)	< 0.01 µM (active)	< 0.01 µM (active)	< 0.01 µM (active)	0.0366 µM (active)	–
